Patent US20240209043A1, “NON-ANTIBODY BINDING PEPTIDES AND THEIR ANALOGS DUAL-TARGETING TO PD-1 AND PD-L1, AND USES THEREOF” (ORAL SUBSIDIARY SUN YAT-SEN UNIVERSITY HOSPITAL, priority 2021, published 2024)
“Also recorded” adds a separate entry of the source. Where a SMILES comes first, the peptide text is derived from it. Bridges are numbered along the chain shown (N, C = ends). Roman numbers before positions name the chains, in order. Where no end group is shown, it is not given here.

Columns and labels:
PD-1 [1] = target: T1, PD-1 (Homo sapiens, UniProt Q15116); experiment: ka (1/Ms)
Description: Table printed on a drawing sheet, Figure 2E
Title: nABP786 binding to PD-1
(§1) Head of the field: ka (1/Ms)
(§2) The patent's description of the figure: FIG. 2A depicts test results of binding affinity of nABP284 to PD-1 measured by surface plasmon resonance (SPR);
(§3) FIG. 2B depicts test results of binding affinity of nABP386 to PD-1 measured by SPR;
(§4) FIG. 2C depicts test results of binding affinity of nABP486 to PD-1 measured by SPR;
(§5) FIG. 2D depicts test results of binding affinity of nABP486 to PD-L1 measured by SPR;
(§6) FIG. 2E depicts test results of binding affinity of nABP786 to PD-1 measured by SPR;
(§7) FIG. 2F depicts test results of binding affinity of nABP786 to PD-L1 measured by SPR;
First copying reader's note: Inset table of SPR kinetic constants printed above the sensorgram; the target is PD-1.
Where the first naming reader finds the target: table_title: nABP786 binding to PD-1
Target sequence in this assay (Q15116 25-288 limits assumed): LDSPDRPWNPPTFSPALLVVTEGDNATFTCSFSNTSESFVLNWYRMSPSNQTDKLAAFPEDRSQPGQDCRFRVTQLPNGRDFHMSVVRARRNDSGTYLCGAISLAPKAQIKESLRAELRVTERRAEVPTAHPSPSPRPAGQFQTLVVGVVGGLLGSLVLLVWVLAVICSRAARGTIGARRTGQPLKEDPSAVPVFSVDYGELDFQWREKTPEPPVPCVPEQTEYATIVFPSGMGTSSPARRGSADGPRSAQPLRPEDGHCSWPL

PD-L1 [2] = target: T2, PD-L1 (Homo sapiens, UniProt Q9NZQ7); experiment: ka (1/Ms)
Description: Table printed on a drawing sheet, Figure 2F
Title: nABP786 binding to PD-L1
as §1, §2, §3, §4, §5, §6, §7
Target sequence in this assay (Q9NZQ7 19-290 limits assumed): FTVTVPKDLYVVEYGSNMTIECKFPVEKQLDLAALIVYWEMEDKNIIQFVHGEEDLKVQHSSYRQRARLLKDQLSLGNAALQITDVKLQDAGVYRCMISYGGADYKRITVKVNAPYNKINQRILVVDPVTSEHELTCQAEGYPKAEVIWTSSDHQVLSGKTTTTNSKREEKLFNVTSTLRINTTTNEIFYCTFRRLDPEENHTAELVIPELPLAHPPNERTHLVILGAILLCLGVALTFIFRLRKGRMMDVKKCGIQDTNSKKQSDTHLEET
First copying reader's note: Inset table of SPR kinetic constants printed above the sensorgram; the target is PD-L1.
Where the first naming reader finds the target: table_title: nABP786 binding to PD-L1

PD-L1 [3] = target: T2, PD-L1; details: background section; read-out: Kd-value of antibody drug targeting PD-L1; cited from earlier work
Target sequence in this assay (Q9NZQ7 19-290): as the sequence (Q9NZQ7 19-290 limits assumed) above

PD-1 [4] = target: T1, PD-1; details: background section; read-out: Kd-value of antibody drug targeting PD-1; cited from earlier work
Target sequence in this assay (Q15116 25-288): as the sequence (Q15116 25-288 limits assumed) above

Jurkat T cells = experiment: CCK-8 cytotoxicity assay on Jurkat T cells; format: cell-based, Human; details: CCK-8, 1-64 μM, 24 hours
Protocol: (§8) Cytotoxicity assay was performed and measured with Cell Counting Kit-8 (CCK-8, Dujindo, Japan). Jurkat cells (each well with 4000 cells), PBMCs (each well with 4000 cells) and Cal27 cells (each well with 2000 cells) were added into a 96-well plate and cultured for 24 hours, respectively. nABP284, nABP386 and nABP486 in a concentration gradient of 1 μM, 2 μM, 3 μM, 4 μM, 8 μM, 16 μM, 32 μM and 64 μM were added into the medium and the cells were cultured for 24 hours in a cell incubator. After that, 10 μl of CCK-8 solution was added to each well and the cells were incubated for 2 hours. VictorX5 Multilabel plate reader (PerkinElmer, Singapore) was used for measuring absorbance of each well at 450 nm. Cell viability (%) was calculated by the following formula:
(§9) Cell viability (%)=[(Sample A−Background A)/(Control A−Blank A)×100%. • Wherein Sample A denotes the absorbance of the experimental well (including cells, CCK-8 solution, medium and peptide diluent) • Background A denotes the absorbance of the background hole (including CCK-8 solution, medium, and peptide diluent without cells); • Control A denotes the absorbance of the control hole (including cells, CCK-8 solution and medium without peptide diluent); and • Blank A denotes the absorbance of the blank hole (including CCK-8 solution and medium without cells and peptide diluent).

Cal27 cells = experiment: CCK-8 cytotoxicity assay on Cal27 cells; format: cell-based, Human; details: CCK-8, 1-64 μM, 24 hours
Protocol: as §8, §9

[5] = system: peripheral blood derived lymphocytes; experiment: CCK-8 cytotoxicity assay on PBMCs / iCIKs; format: cell-based, Human; details: CCK-8, 1-64 μM, 24 hours
Protocol: as §8, §9

[6] = system: Cal27 cells co-cultured with iCIKs; experiment: iCIKs-mediated tumor killing efficiency on Cal27 cells (LDH release); format: cell-based, Human; details: 10 μM peptide or 2 ug/ml antibody, iCIKs:Cal27 10 to 1, 6 hours
Protocol: Human peripheral blood and PBS are mixed at a ratio of 1 to 1, and then the mixture was added to the surface of Ficoll solution in an equal volume and the mixture and Ficoll were kept layered. Density gradient centrifugation (400 g, 20 min) was used for separating components of the peripheral blood. 10 ug/ml of Anti-CD3 monoclonal antibody (T210, TAKARA) was coated on cell culture dishes to cover the mixture at 4° C. overnight. The separated PBMCs were added to the coated dishes in which RPMI1640 medium supplemented with 10% of fetal calf serum, 2000 U/ml of IFN-γ, and 10 ng/ml of IL-2 was added and was changed every three days. After a ten-day culture, the stimulated PBMCs were known as improving cytokine-induced killer cells (iCIKs).
500 U/ml of IFN-γ was used for stimulating Cal27 cells for 48 hours. The iCIKs were incubated with 10 uM of nABP284, 10 μM of nABP386, 10 μM of nABP486, and 2 ug/ml of PD-1 functional monoclonal antibody (J116, eBioscience|ThermoFisher Science) for 1 hour at 37° C., respectively, and the stimulated CAL27 cells were added to the 96-well plate at 1×10^4 cells per well. […] After these cells were co-cultured for 6 hours, a Cyto Tox Non-Radioactive Cytotoxicity Assay kit was used for detecting the level of lactic dehydrogenase (LDH) in the medium and VictorX5 multilabel plate reader (PerkinElmer, Singapore) was used for measuring absorbance at 490 nm.

For `CC[C@H](C)[C@H](NC(=O)[C@H](CCC(=O)O)NC(=O)[C@H](CCCCN)NC(=O)[C@H](CC(C)C)NC(=O)[C@H](CCCCNC(=O)[C@H](CC(C)C)NC(=O)[C@H](CCCNC(=N)N)NC(=O)[C@H](Cc1c[nH]cn1)NC(=O)[C@H](Cc1c[nH]cn1)NC(=O)[C@H](Cc1c[nH]cn1)NC(=O)[C@@H](N)CO)NC(=O)[C@H](CC(C)C)NC(=O)[C@H](CCCNC(=N)N)NC(=O)[C@H](Cc1c[nH]cn1)NC(=O)[C@H](Cc1c[nH]cn1)NC(=O)[C@H](Cc1c[nH]cn1)NC(=O)[C@@H](N)CO)C(=O)N[C@@H](C)C(=O)N[C@@H](CC(N)=O)C(=O)N[C@@H](CS)C(=O)N[C@@H](CO)C(=O)N1CCC[C@H]1C(=O)N[C@H](C(=O)N[C@@H](CCC(N)=O)C(=O)N[C@@H](Cc1ccccc1)C(=O)N[C@@H](CCCCN)C(=O)N[C@@H](CS)C(=O)O)[C@@H](C)O` [nABP786] (HELM PEPTIDE1{S.H.H.H.R.L.K.L.K.E.I.A.N.C.S.P.T.Q.F.K.C}|PEPTIDE2{S.H.H.H.R.L}$PEPTIDE1,PEPTIDE2,7:R3-6:R2$$$V2.0), which “ka” value (PD-1 [1]) is on record?
Its value is 77600 M⁻¹ s⁻¹.

And the “ka” value (PD-L1 [2])?
The value was 29000 M⁻¹ s⁻¹.

For Atezolizumab, which Kd (PD-L1 [3]) is on record?
Its Kd is 0.4 nM.

For Cemiplimab, which Kd (PD-1 [4]) is on record?
Its Kd is 6.11 nM.

Which Kd (PD-1 [4]) does the source give for Cindilimab here?
The Kd was 0.25 nM.

For Durvalumab, which Kd (PD-L1 [3]) is on record?
The Kd was 0.667 nM.

With “I: SHHHRLKLKEIANSPTQFWRMVARNTLGNGAKQSLNIEHA / II: SHHHRL (amide I:7-II:C) [nABP486]” as the molecule, how does the “direct cytotoxicity to Jurkat T cells” value (Jurkat T cells) read?
Its value is “no directly cytotoxicity; also recorded: non-toxic and side effects”.

And the “direct cytotoxicity to Cal27 cells” value (Cal27 cells)?
The value was “no directly cytotoxicity; also recorded: no direct killing ability to Cal27 cells; also recorded: non-toxic and side effects”.

What about the “toxicity on peripheral blood derived lymphocytes” value [5] of the same molecule?
Its value is “non-toxic and side effects”.

And the “iCIKs-mediated cytotoxicity (killing ability) for Cal27 cells” value [6]?
Its value is “significantly increased; also recorded: significantly reverse the immune escape of tongue cancer cells; also recorded: superior to functional anti-PD-1 antibody; also recorded: can enhance the tumor killing effect of lymphocytes on tumor cells”.

With “I: SRLKEIANSPTQFWRMVARNTLGNHAKQSLNIEHA / II: SHHHRL (amide I:27-II:C) [nABP386]” as the molecule, how does the “direct cytotoxicity to Jurkat T cells” value (Jurkat T cells) read?
Its value is “no directly cytotoxicity; also recorded: non-toxic and side effects”.

What about the “direct cytotoxicity to Cal27 cells” value (Cal27 cells) of the same molecule?
The value was “no directly cytotoxicity; also recorded: non-toxic and side effects”.

What about the “toxicity on peripheral blood derived lymphocytes” value [5] of the same molecule?
The value was “non-toxic and side effects”.

And the “iCIKs-mediated cytotoxicity (killing ability) for Cal27 cells” value [6]?
Its value is “can enhance the tumor killing effect of lymphocytes on tumor cells”.

For Toripalimab, which Kd (PD-1 [4]) is on record?
The Kd was 0.324 nM.
